Data from patent US6924099B1, “Biomarkers and assays for carcinogenesis” (G.D. Searle & Co., priority 1999, dated 2005).

Assays:
[1] = system: rat liver mRNA; assay: RT-PCR of mRNAs for three phenobarbital-induced genes; conditions: oral gavage 200 mg/kg, 88 days or 5 days
Procedure: Specifically, rats were treated by oral gavage for 88 days in the 13 week experiment, or for 5 days with 200 mg/kg phenobarbital or control vehicle.

[2] = system: cellular mRNAs in rat liver; assay: AFLP-based Transcript Imaging of liver mRNAs of phenobarbital-treated rats; assay type: in vivo; conditions: for Fold Change AFLP: 13 weeks phenobarbital 200 mg/kg oral gavage
Procedure: Rats were treated with phenobarbital for thirteen weeks or in a separate experiment, for 5 days. Liver mRNAs were extracted and probed for those mRNAs specifically altered by phenobarbital treatment by comparing with mRNA expression in untreated rats. The relative abundance of cellular mRNAs in rat liver was determined using PE GenScope's AFLP (Amplified Fragment Length Polymorphism)-based Transcript Imaging technology. The mRNA is converted into double-stranded cDNA, which is then cut with restriction enzymes. The resulting restriction fragments are tagged with specific adapters of known sequences, which allows for subsequent amplification of the fragments under highly stringent conditions. Similar technology has been used in plants (Money. T. et al., Nucleic Acids Res. 24:2616-2617 (1996), incorporated by reference in its entirety).

[3] = system: rat liver mRNA; assay: Validation of AFLP biomarkers by rt-PCR (Taqman) in liver of phenobarbital-treated rats; assay type: in vivo; conditions: for Fold Change 2-week: 2 weeks phenobarbital; for Fold Change 13-week: 13 weeks phenobarbital 200 mg/kg oral gavage
Procedure: After AFLP experiments were conducted, and results analyzed, the effects of phenobarbital on the expression of several biomarkers were validated. RNA was extracted from the same liver samples used in the AFLP study, in addition to liver samples from rats treated with phenobarbital for 2-weeks, followed by reverse transcription reactions to generate cDNA, followed by PCR, using Taqman technology. The genes analyzed for phenobarbital-induced alterations, and the corresponding AFLP sequence numbers are listed in Table 5, and a graph and a chart of the actual results are in Table 6 and FIG. 1.
Eleven of the 17 (65%) genes analyzed were also determined to be differentially expressed using rt-PCR. However, this is based on comparisons at the same timepoint (13 weeks). When the rt-PCR analyses performed on the 2 week samples are considered, another marker (S-033) is found to be differentially expressed. Theoretically, differences in sensitivity and or specificity between the two techniques could be accounted for these minor discrepancies. However, S-033 is an example of how AFLP has identified biomarkers which are optimal for carcinogen detection at timepoints other than 13 weeks.

[4] = SEQ NO. 4 (Rat aldehyde dehydrogenase) mRNA
[5] = SEQ NO. 10 (Rat vitamin D-binding protein) mRNA
[6] = SEQ NO. 25 (Rat cytochrome B) mRNA
[7] = SEQ NO. 34 (Rat liver catalase) mRNA
[8] = SEQ NO. 38 (Rat alpha-2u globulin) mRNA
[9] = SEQ NO. 40 (Rat NADP-dep.isocitrate dehydrogenase) mRNA
[10] = SEQ NO. 42 (Mouse JAK1 (protein tyrosine kinase)) mRNA
[11] = SEQ NO. 46 (Rat cathepsin B) mRNA
[12] = SEQ NO. 52 ((s)-2-hydroxy acid oxidase) mRNA
[13] = SEQ NO. 92 (Rat nicotinic receptor alpha 7 subunit) mRNA
[14] = SEQ NO. 114 (Rat delta-aminolevulinate synthase) mRNA
[15] = SEQ NO. 116 (Estrogen sulfotransferase) mRNA
[16] = SEQ NO. 129 (Glutathione S-transferase) mRNA
[17] = SEQ NO. 230 (Rat carboxylesterase) mRNA

Q: How did the “Average expression level of P450 2B1 mRNA as compared to control rats” value [1] turn out when `CCC1(c2ccccc2)C(=O)NC(=O)NC1=O` [phenobarbital] was run?
A: substantial induction

Q: What about the “Down-regulation of the sequences of Table 3 (SEQ NO 419-457)” value ([2]; 5 weeks of treatment) of the same molecule?
A: at least 1.7 fold

Q: And the “Up-regulation of the sequences of Table 4 (SEQ NO 458-489)” value ([2]; 5 weeks of treatment)?
A: at least 1.7 fold

Q: What about the “Down-regulation of the sequences of Table 1 (SEQ NO 275-318)” value ([2]; 13 weeks of treatment) of the same molecule?
A: at least 1.7 fold

Q: And the “Up-regulation of the sequences of Table 2 (SEQ NO 319-418)” value ([2]; 13 weeks of treatment)?
A: at least 1.7 fold

Q: And the “Fold Change AFLP” value ([2]; SEQ NO. 3 (Rat P-450) mRNA)?
A: 2.3 fold

Q: And the “Fold Change AFLP” value [2, 4]?
A: 8.2 fold

Q: What about the “Fold Change AFLP” value ([2]; SEQ NO. 6 (Rat UDPGT1.1) mRNA) of the same molecule?
A: 4.6 fold

Q: And the “Fold Change AFLP” value [2, 5]?
A: 1.7 fold

Q: And the “Fold Change AFLP” value [2, 6]?
A: 4.2 fold

Q: What about the “Fold Change AFLP” value [2, 7] of the same molecule?
A: 16 fold

Q: What about the “Fold Change AFLP” value [2, 8] of the same molecule?
A: 0.04 fold

Q: And the “Fold Change AFLP” value [2, 9]?
A: 2.5 fold

Q: What about the “Fold Change AFLP” value [2, 10] of the same molecule?
A: 1.9 fold

Q: What about the “Fold Change AFLP” value [2, 11] of the same molecule?
A: 2.3 fold

Q: And the “Fold Change AFLP” value [2, 12]?
A: 0.3 fold

Q: What about the “Fold Change AFLP” value [2, 13] of the same molecule?
A: 6.3 fold

Q: And the “Fold Change AFLP” value [2, 14]?
A: 3.8 fold

Q: And the “Fold Change AFLP” value [2, 15]?
A: 0.32 fold

Q: And the “Fold Change AFLP” value [2, 16]?
A: 4 fold

Q: What about the “Fold Change AFLP” value ([2]; SEQ NO. 179 (Rat UDPGT) mRNA) of the same molecule?
A: 10.5 fold

Q: What about the “Fold Change AFLP” value [2, 17] of the same molecule?
A: 1.3 fold

Q: And the “Fold Change 2-week” value ([3]; SEQ NO. 3 (Rat P-450) mRNA)?
A: 1.34 fold

Q: What about the “Fold Change 13-week” value ([3]; SEQ NO. 3 (Rat P-450) mRNA) of the same molecule?
A: 1.85 fold

Q: And the “Fold Change 2-week” value [3, 4]?
A: 16.36 fold

Q: And the “Fold Change 13-week” value [3, 4]?
A: 12.88 fold

Q: What about the “Fold Change 2-week” value ([3]; SEQ NO. 6 (Rat UDPGT1.1) mRNA) of the same molecule?
A: 0.93 fold

Q: And the “Fold Change 13-week” value ([3]; SEQ NO. 6 (Rat UDPGT1.1) mRNA)?
A: 1.5 fold

Q: What about the “Fold Change 2-week” value [3, 5] of the same molecule?
A: 0.66 fold

Q: And the “Fold Change 13-week” value [3, 5]?
A: 0.79 fold

Q: And the “Fold Change 2-week” value [3, 6]?
A: 1.85 fold

Q: And the “Fold Change 13-week” value [3, 6]?
A: 0.75 fold

Q: What about the “Fold Change 2-week” value [3, 7] of the same molecule?
A: 0.79 fold

Q: And the “Fold Change 13-week” value [3, 7]?
A: 0.45 fold

Q: What about the “Fold Change 2-week” value [3, 8] of the same molecule?
A: 0.35 fold

Q: And the “Fold Change 13-week” value [3, 8]?
A: 0.03 fold

Q: And the “Fold Change 2-week” value [3, 9]?
A: 0.88 fold

Q: And the “Fold Change 13-week” value [3, 9]?
A: 1.14 fold

Q: And the “Fold Change 2-week” value [3, 10]?
A: 0.8 fold

Q: What about the “Fold Change 13-week” value [3, 10] of the same molecule?
A: 0.83 fold

Q: And the “Fold Change 2-week” value [3, 11]?
A: 0.87 fold

Q: What about the “Fold Change 13-week” value [3, 11] of the same molecule?
A: 1.41 fold

Q: And the “Fold Change 2-week” value [3, 12]?
A: 0.31 fold

Q: And the “Fold Change 13-week” value [3, 12]?
A: 0.09 fold

Q: What about the “Fold Change 2-week” value [3, 13] of the same molecule?
A: 0.45 fold

Q: And the “Fold Change 13-week” value [3, 13]?
A: 0.72 fold

Q: What about the “Fold Change 2-week” value [3, 14] of the same molecule?
A: 1.22 fold

Q: And the “Fold Change 13-week” value [3, 14]?
A: 4.03 fold

Q: What about the “Fold Change 2-week” value [3, 15] of the same molecule?
A: 0.81 fold

Q: And the “Fold Change 13-week” value [3, 15]?
A: 0.15 fold

Q: What about the “Fold Change 2-week” value [3, 16] of the same molecule?
A: 2.52 fold

Q: And the “Fold Change 13-week” value [3, 16]?
A: 4.03 fold

Q: What about the “Fold Change 2-week” value ([3]; SEQ NO. 179 (Rat UDPGT) mRNA) of the same molecule?
A: 14.11 fold

Q: And the “Fold Change 13-week” value ([3]; SEQ NO. 179 (Rat UDPGT) mRNA)?
A: 9.05 fold

Q: What about the “Fold Change 2-week” value [3, 17] of the same molecule?
A: 4.24 fold

Q: What about the “Fold Change 13-week” value [3, 17] of the same molecule?
A: 5.74 fold
